Data set [1] has as its system Rat aortic smooth muscle cells (RSMC). The experiment in a line: cGMP level measurements in ANF-stimulated rat aortic smooth muscle cells. The format is cell-based. The settings on record: 30 minutes at 37° C. with compound, then ANF (100 nM) for 10 minutes, dose giving half of the stimulation at saturating concentrations. The protocol:
Rat aortic smooth muscle cells (RSMC), prepared according to Chamley et al., Cell Tissue Res., 177, 503-522 (1977), were used between the 10th and 25th passage at confluence in 24-well culture dishes. Culture media was aspirated and replaced with PBS (0.5 ml) containing the compound tested at the appropriate concentration. After 30 minutes at 37° C., particulates guanylate cyclase was stimulated by addition of ANF (100 nM) for 10 minutes. At the end of incubation, the medium was withdrawn, and two extractions were performed by addition of 65% ethanol (0.25 ml). The two ethanolic extracts were pooled and evaporated until dryness, using a Speed-vac system. cGMP was measured after acetylation by scintillation proximity immunoassay (AMERSHAM). The EC50 values are expressed as the dose-giving half of the stimulation at saturating concentrations.

The target in the next data set is human recombinant PDE5 (Homo sapiens, UniProt O76074). The experiment in a line: Inhibitory effect on cGMP-PDE (one-step assay adapted from Wells et al.). The following applies: human recombinant PDE5, 0.15 μM 8-[H3]-cGMP, 30 minutes incubation, 2% DMSO. The format is biochemical. How it is done:
cGMP-PDE activity of compounds of the present invention was measured using a one-step assay adapted from Wells et al., Biochim. Biophys. Acta, 384, 430 (1975). The reaction medium contained 50 mM Tris-HCl, pH 7.5, 5 mM magnesium acetate, 250 μg/ml 5′-Nucleotidase, 1 mM EGTA, and 0.15 μM 8-[H^3]-cGMP. The enzyme used was a human recombinant PDE5 (ICOS Corp., Bothell, Wash.).
Compounds of the invention were dissolved in DMSO finally present at 2% in the assay.

Data set [2] has as its system conscious spontaneously hypertensive rats (SHRs). In words: Hypotensive effects in conscious spontaneously hypertensive rats. The format is in vivo, rat. The following applies: orally 5 mg/kg in 5% DMF and 95% olive oil; AUC from 0 to 5 hours of the fall in blood pressure. How it is done: The hypotensive effects of compounds according to the invention as identified in Table 2 were studied in conscious spontaneously hypertensive rats (SHRs). The compounds were administered orally at a dose of 5 mg/kg in a mixture of 5% DMF and 95% olive oil. Blood pressure was measured from a catheter inserted in the carotid artery and recorded for five hours after administration. The results are expressed as Area Under the Curve (AUC) from 0 to 5 hours, mm Hg.hours of the fall in blood pressure over time.

Molecules are shown by their SMILES.

What is called EC50 is the concentration that produces a half-maximal response. For orientation: IC50 means the concentration needed to halve the response being measured. Regarding `CN(C)Cc1ccc(/C=C/C(=O)N2CCc3c([nH]c4ccccc34)[C@H]2c2ccc3c(c2)CCO3)o1` [Example 17, (E)-1R-1-[1-(2,3-Dihydrobenzofuran-5-yl)-2,3,4,9-tetrahydro-β-carboline-2-yl]-3-(5-dimethylaminomethyl-furan-2-yl)-propene-1-one], the 50% effective concentration (EC50) in data set [1] is < 1000 nM. Besides, on human recombinant PDE5, the concentration for half-maximal inhibition (IC50) was found to be 20 nM. The “SHR AUC PO” value in data set [2] is recorded as 40 mm Hg.h.
One may read the melting point as the temperature, or range, at which the solid turns liquid. With `O=C(/C=C/c1cccnc1)N1CCc2c([nH]c3ccccc23)C1c1ccc2c(c1)OCO2` (stereo not drawn) [Example 1, (E)-1-[1-(3,4-Methylenedioxyphenyl)-2,3,4,9-tetrahydro-β-carbolin-2-yl]-3-(pyridin-3-yl)-propene-1-one], the melting point amounted to 240 °C. In data set [1], the EC50 was found to be 500 nM. The half-inhibitory concentration (IC50) on human recombinant PDE5 turned out to be 58 nM. Also, the “SHR AUC PO” value in data set [2] is given as 61 mm Hg.h.
In the case of `CN(C)Cc1ccc(/C=C/C(=O)N2CCc3c([nH]c4ccccc34)[C@H]2c2ccc3c(c2)CCO3)s1` [Example 14, (E)-1R-1-[1-(2,3-Dihydrobenzofuran-5-yl)-2,3,4,9-tetrahydro-β-carboline-2-yl]-3-(5-dimethylaminomethyl-thiophen-2-yl)-propene-1-one], the EC50 in data set [1] is 1500 nM. Also, the half-maximal inhibitory concentration (IC50) at human recombinant PDE5 was 5 nM. Further, the “SHR AUC PO” value in data set [2] came out at 107 mm Hg.h.
For `CNc1ccc(/C=C/C(=O)N2CCc3c([nH]c4ccccc34)[C@H]2c2ccc3c(c2)CCO3)cn1` [Example 8, (E)-(R)-1-[1-(2,3-Dihydrobenzofuran-5-yl)-2,3,4,9-tetrahydro-β-carbolin-2-yl]-3-(6-methylaminopyridin-3-yl)-propene-1-one], the melting point was 171 °C. Besides, the concentration for a half-maximal effect (EC50) in data set [1] is < 1000 nM. Besides, the IC50 at human recombinant PDE5 amounted to 7 nM. Also, the “SHR AUC PO” value in data set [2] was found to be 50 mm Hg.h.
On to `O=C(/C=C/c1ccc(CN2CCCC2)s1)N1CCc2c([nH]c3ccccc23)[C@H]1c1ccc2c(c1)CCO2` [Example 15, (E)-1R-1-[1-(2,3-Dihydrobenzofuran-5-yl)-2,3,4,9-tetrahydro-β-carboline-2-yl]-3-(5-pyrrolidin-1-ylmethyl-thiophen-2-yl)-propene-1-one], for which the concentration giving a half-maximal response (EC50) in data set [1] amounted to 1500 nM. Besides, at human recombinant PDE5, the 50% inhibitory concentration (IC50) worked out at 40 nM. Further, the “SHR AUC PO” value in data set [2] is 96 mm Hg.h.
As for `CN1CCN(c2ccc(/C=C/C(=O)N3CCc4c([nH]c5ccccc45)[C@H]3c3ccc4c(c3)CCO4)cn2)CC1` [Example 9, (E)-(R)-1-[1-(2,3-Dihydrobenzofuran-5-yl)-2,3,4,9-tetrahydro-β-carbolin-2-yl]-3-[6-(4-methylpiperazin-1-yl)-pyridin-3-yl]-propene-1-one], the melting point is > 260 °C. Also, the concentration for a half-maximal effect (EC50) in data set [1] is 1000 nM. For the same compound, on human recombinant PDE5, the half-inhibitory concentration (IC50) was 25 nM. Further, the “SHR AUC PO” value in data set [2] came out at 63 mm Hg.h.
`O=C(/C=C/c1ccc(N2CCCC2)nc1)N1CCc2c([nH]c3ccccc23)[C@H]1c1ccc2c(c1)CCO2` [Example 10, (E)-(R)-1-[1-(2,3-Dihydrobenzofuran-5-yl)-2,3,4,9-tetrahydro-β-carbolin-2-yl]-3-(6-pyrrolidin-1-yl-pyridin-3-yl)-propene-1-one] had a melting point of 201 °C. In data set [1], the EC50 was < 1000 nM. In addition, the IC50 on human recombinant PDE5 came out at 9 nM.
`CN(C)CCOc1ccc(/C=C/C(=O)N2CCc3c([nH]c4ccccc34)[C@H]2c2ccc3c(c2)CCO3)cn1` [Example 6, (E)-1R-1-[1-(2,3-Dihydrobenzofuran-5-yl)-2,3,4,9-tetrahydro-β-carbolin-2-yl]-3-[6-(2-dimethylaminoethoxy)-pyridin-3-yl]-propene-1-one] returned a melting point of 155 °C. Moreover, in data set [1], the concentration for a half-maximal effect (EC50) is < 1000 nM. In addition, the 50% inhibitory concentration (IC50) at human recombinant PDE5 was found to be 10 nM. For the same compound, in data set [2], the “SHR AUC PO” value was determined as 95 mm Hg.h.
In the same order, the values of `CN(C)Cc1ccc(/C=C/C(=O)N2CCc3c([nH]c4ccccc34)[C@H]2c2ccc3c(c2)CCO3)cn1` [Example 13, (E)-(R)-1-[1-(2,3-Dihydrobenzofuran-5-yl)-2,3,4,9-tetrahydro-β-carbolin-2-yl]-3-(6-dimethylaminomethyl-pyridin-3-yl)-propene-1-one] are 163 °C, < 1000 nM, 30 nM and 57 mm Hg.h.
Consider `O=C(/C=C/c1ccncc1)N1CCc2c([nH]c3ccccc23)C1c1ccc2c(c1)OCO2` (stereo not drawn) [Example 4], for which the melting point is 224 to 225 °C. Moreover, the EC50 in data set [1] is 500 nM. Besides, the half-inhibitory concentration (IC50) on human recombinant PDE5 amounted to 46 nM.
As to `CN1CCN(c2ncc(/C=C/C(=O)N3CCc4c([nH]c5ccccc45)[C@H]3c3ccc4c(c3)CCO4)cn2)CC1` [Example 23], the EC50 in data set [1] is < 1000 nM. Moreover, the half-inhibitory concentration (IC50) on human recombinant PDE5 turned out to be 8 nM. Moreover, in data set [2], the “SHR AUC PO” value is 108 mm Hg.h.
As to `O=C(/C=C/c1ccc([N+](=O)[O-])s1)N1CCc2c([nH]c3ccccc23)[C@H]1c1ccc2c(c1)CCO2` [Example 26, (E)-1R-1-[1-(2,3-Dihydrobenzofuran-5-yl)-2,3,4,9-tetrahydro-β-carboline-2-yl]-3-(5-nitro-thiophen-2-yl)-propene-1-one], in data set [1], the half-maximal effective concentration (EC50) was < 1000 nM. In addition, on human recombinant PDE5, the half-maximal inhibitory concentration (IC50) came out at 40 nM.
Consider `O=C(O)c1ccc(/C=C/C(=O)N2CCc3c([nH]c4ccccc34)[C@H]2c2ccc3c(c2)CCO3)nc1` [Example 12, (E)-(R)-6-{3-[1-(2,3-Dihydrobenzofuran-5-yl)-2,3,4,9-tetrahydro-β-carbolin-2-yl]-3-oxo-propenyl}-nicotinic acid], for which the melting point came to 183 °C. For the same compound, in data set [1], the EC50 was 5000 nM. At human recombinant PDE5, the 50% inhibitory concentration (IC50) was 3 nM.
For `O=C(/C=C/c1cnc(N2CCCC2)nc1)N1CCc2c([nH]c3ccccc23)[C@H]1c1ccc2c(c1)CCO2` [Example 22], the EC50 in data set [1] was < 1000 nM. The IC50 on human recombinant PDE5 turned out to be 6 nM. Also, the “SHR AUC PO” value in data set [2] came to 9 mm Hg.h.
As for `O=C(/C=C/c1cncnc1)N1CCc2c([nH]c3ccccc23)[C@H]1c1ccc2c(c1)CCO2` [Example 20, (E)-1R-1-[1-(2,3-Dihydrobenzofuran-5-yl)-2,3,4,9-tetrahydro-β-carboline-2-yl]-3-(pyrimidin-5-yl)-propene-1-one], the half-maximal effective concentration (EC50) in data set [1] was < 1000 nM. The IC50 at human recombinant PDE5 was 40 nM. Besides, the “SHR AUC PO” value in data set [2] is on record as 48 mm Hg.h.
On to `COC(=O)c1ccc(/C=C/C(=O)N2CCc3c([nH]c4ccccc34)[C@H]2c2ccc3c(c2)CCO3)nc1` [Example 11, (E)-(R)-6-{3-[1-(2,3-Dihydrobenzofuran-5-yl)-2,3,4,9-tetrahydro-β-carbolin-2-yl]-3-oxo-propenyl}-nicotinic acid methyl ester], for which the melting point is > 260 °C. The EC50 in data set [1] was < 1000 nM. In addition, at human recombinant PDE5, the IC50 was determined as 27 nM.
As to `CN1CCN(Cc2ccc(/C=C/C(=O)N3CCc4c([nH]c5ccccc45)[C@H]3c3ccc4c(c3)CCO4)s2)CC1` [Example 16, (E)-1R-1-[1-(2,3-Dihydrobenzofuran-5-yl)-2,3,4,9-tetrahydro-β-carboline-2-yl]-3-(4-methyl-piperazin-1-ylmethyl-thiophen-2-yl)-propene-1-one], the 50% effective concentration (EC50) in data set [1] amounted to 3500 nM. Besides, the IC50 on human recombinant PDE5 was 4 nM.
On to `O=C(/C=C/c1ccccn1)N1CCc2c([nH]c3ccccc23)C1c1ccccc1` (stereo not drawn) [Example 3, (E)-1-[1-phenyl-2,3,4,9-tetrahydro-β-carbolin-2-yl]-3-(pyridin-2-yl)-propene-1-one], for which the melting point was in the range of 130 to 135 °C. The half-maximal inhibitory concentration (IC50) on human recombinant PDE5 came out at 740 nM.
As for `CN(C)Cc1occc1/C=C/C(=O)N1CCc2c([nH]c3ccccc23)[C@H]1c1ccc2c(c1)CCO2` [Example 19, (E)-1R-1-[1-(2,3-Dihydrobenzofuran-5-yl)-2,3,4,9-tetrahydro-β-carboline-2-yl]-3-(2-dimethylaminomethyl-furan-3-yl)-propene-1-one], the half-maximal effective concentration (EC50) in data set [1] came to 4000 nM. In addition, at human recombinant PDE5, the IC50 stood at 40 nM.
On to `O=C(/C=C/c1ccccn1)N1CCc2c([nH]c3ccccc23)C1c1ccc2c(c1)OCO2` (stereo not drawn) [Example 2, (E)-1-[1-(3,4-Methylenedioxyphenyl)-2,3,4,9-tetrahydro-β-carbolin-2-yl]-3-(pyridin-2-yl)-propene-1-one], for which the melting point was in the range of 135 to 141 °C. Moreover, the concentration for half-maximal inhibition (IC50) at human recombinant PDE5 amounted to 76 nM.
Turning to `Nc1ncc(/C=C/C(=O)N2CCc3c([nH]c4ccccc34)[C@H]2c2ccc3c(c2)CCO3)cn1` [Example 21, (E)-1R-1-[1-(2,3-Dihydrobenzofuran-5-yl)-2,3,4,9-tetrahydro-β-carboline-2-yl]-3-(2-amino-5-pyrimidin-5-yl)-propene-1-one], the EC50 in data set [1] is < 1000 nM. At human recombinant PDE5, the IC50 came to 7 nM. In data set [2], the “SHR AUC PO” value came out at 124 mm Hg.h.

The values are drawn from patent publication US6462047B1, “Carboline derivatives as cGMP phosphodiesterase inhibitors” (ICOS Corporation, priority 2001, dated 2002).
